Measurements: patent publication US7880007B2, “Bicyclic substituted phenyl piperidine modulators of muscarinic receptors” (Vertex Pharmaceuticals Incorporated, priority 2004, dated 2011)

Assays:
Type in all cases: cell-based
[1] = target: T1, M1 muscarinic receptor (Homo sapiens, UniProt P11229); assay: Functional mobilization of intracellular calcium (FLIPR), M1-CHO cells; details: for M1 Activity: M1-CHO cells, calcium mobilization (FLIPR)
T1 construct: expressed in transfected cells; host or cells: CHO (M1-CHO)
T1 sequence (P11229 1-460): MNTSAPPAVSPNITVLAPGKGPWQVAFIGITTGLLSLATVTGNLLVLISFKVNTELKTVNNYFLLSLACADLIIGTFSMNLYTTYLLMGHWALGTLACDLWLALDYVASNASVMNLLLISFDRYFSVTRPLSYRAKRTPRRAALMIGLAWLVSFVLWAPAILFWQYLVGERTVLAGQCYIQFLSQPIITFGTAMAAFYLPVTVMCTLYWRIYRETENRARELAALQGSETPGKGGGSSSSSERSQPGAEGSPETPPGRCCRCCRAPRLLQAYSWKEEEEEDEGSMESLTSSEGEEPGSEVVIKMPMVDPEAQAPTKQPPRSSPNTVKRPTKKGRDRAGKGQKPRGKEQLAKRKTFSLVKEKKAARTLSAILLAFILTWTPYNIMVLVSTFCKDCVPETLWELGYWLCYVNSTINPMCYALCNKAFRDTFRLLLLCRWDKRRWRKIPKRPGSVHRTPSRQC
How it was run: (§1)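 Calcium mobilisation read by FLIPR over 60 s (ex 488/em 540 nm) in recombinant muscarinic CHO lines loaded with calcium dye plus 1 mM probenecid. Compounds tested as agonists alone, or as inhibitors against EC80 carbachol after 15 min pre-incubation or co-addition; 0.5% DMSO; efficacy scaled to carbachol maximal response.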

[2] = target: T2, M2 muscarinic receptor (Homo sapiens, UniProt P08172); assay: Functional mobilization of intracellular calcium (FLIPR), M2-CHO cells; details: for M2 Activity: M2-CHO cells, calcium mobilization (FLIPR)
T2 construct: expressed in transfected cells; host or cells: CHO (M2-CHO)
T2 sequence (P08172 1-466): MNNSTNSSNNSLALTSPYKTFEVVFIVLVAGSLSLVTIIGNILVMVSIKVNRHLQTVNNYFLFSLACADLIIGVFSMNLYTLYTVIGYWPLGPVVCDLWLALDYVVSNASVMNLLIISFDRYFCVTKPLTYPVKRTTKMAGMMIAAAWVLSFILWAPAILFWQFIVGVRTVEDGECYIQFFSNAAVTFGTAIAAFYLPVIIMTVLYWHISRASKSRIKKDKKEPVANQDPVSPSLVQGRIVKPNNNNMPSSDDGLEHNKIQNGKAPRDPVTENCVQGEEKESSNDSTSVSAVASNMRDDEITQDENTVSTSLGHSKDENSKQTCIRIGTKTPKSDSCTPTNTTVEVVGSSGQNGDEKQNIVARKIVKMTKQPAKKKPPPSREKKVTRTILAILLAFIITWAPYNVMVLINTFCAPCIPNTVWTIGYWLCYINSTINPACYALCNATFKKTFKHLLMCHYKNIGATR
How it was run: as §1

[3] = target: T3, M4 muscarinic receptor (Homo sapiens, UniProt P08173); assay: Functional mobilization of intracellular calcium (FLIPR), M4-CHO cells; details: for M4 Activity: M4-CHO cells, calcium mobilization (FLIPR)
T3 construct: expressed in transfected cells; host or cells: CHO (M4-CHO)
T3 sequence (P08173 1-479): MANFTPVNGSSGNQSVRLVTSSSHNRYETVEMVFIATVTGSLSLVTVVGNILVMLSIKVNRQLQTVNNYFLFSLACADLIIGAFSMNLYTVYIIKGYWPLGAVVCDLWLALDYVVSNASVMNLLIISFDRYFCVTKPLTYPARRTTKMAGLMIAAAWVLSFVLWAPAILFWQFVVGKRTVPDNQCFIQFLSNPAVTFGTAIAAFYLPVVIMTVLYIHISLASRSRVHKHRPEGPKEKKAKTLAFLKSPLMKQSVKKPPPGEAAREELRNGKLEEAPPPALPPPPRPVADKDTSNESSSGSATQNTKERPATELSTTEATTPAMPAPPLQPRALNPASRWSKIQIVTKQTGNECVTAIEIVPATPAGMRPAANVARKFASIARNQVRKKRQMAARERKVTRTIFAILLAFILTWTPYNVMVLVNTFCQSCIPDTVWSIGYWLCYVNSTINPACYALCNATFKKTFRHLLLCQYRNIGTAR
How it was run: as §1

[4] = 100% efficacy = maximum response obtained with the Carbachol control
[5] = 100% efficacy is the maximum response obtained with the Carbachol control

Structure (SMILES): COc1ccc(Cl)cc1C1(OC)CCN(C2CC3CCC(C3)C2)CC1 (stereo not drawn) [Compound 288]
- Emax [1, 4]: 25 to 100%
- M1 Activity [1]: ++ (activity was measured to be from 1.0 μM to 5.0 μM)
- Emax [2, 4]: < 25%
- M2 Activity [2]: + (activity was measured to be greater than 5.0 μM)
- Emax [3, 4]: 25 to 100%
- M4 Activity [3]: +++ (activity was measured to be less than 1.0 μM)

Structure (SMILES): CCCC1CCC(N2CCC(c3cc(Cl)ccc3OC)CC2)CC1 (stereo not drawn) [Compound 293]
- Emax [1, 4]: 25 to 100%
- M1 Activity [1]: ++ (activity was measured to be from 1.0 μM to 5.0 μM)
- Emax [2, 4]: 25 to 100%
- M2 Activity [2]: ++ (activity was measured to be from 1.0 μM to 5.0 μM)
- Emax [3, 4]: 25 to 100%
- M4 Activity [3]: ++ (activity was measured to be from 1.0 μM to 5.0 μM)

Structure (SMILES): COc1ccc(Cl)cc1C1(O)CCN(C2CCOCC2)CC1 [Compound 304]
- Emax [1, 4]: < 25%
- M1 Activity [1]: + (activity was measured to be greater than 5.0 μM)
- Emax [2, 4]: < 25%
- M2 Activity [2]: + (activity was measured to be greater than 5.0 μM)
- Emax [3, 4]: 25 to 100%
- M4 Activity [3]: + (activity was measured to be greater than 5.0 μM)

Structure (SMILES): COc1ccc(Cl)cc1C1(OC)CCN(C2CC3CCC2C3)CC1 (stereo not drawn) [Compound 308]
- Emax [1, 4]: < 25%
- M1 Activity [1]: + (activity was measured to be greater than 5.0 μM)
- Emax [2, 4]: < 25%
- M2 Activity [2]: + (activity was measured to be greater than 5.0 μM)
- Emax [3, 4]: 25 to 100%
- M4 Activity [3]: ++ (activity was measured to be from 1.0 μM to 5.0 μM)

Structure (SMILES): COc1ccccc1C1CCN(C2CC3CCC2O3)CC1 (stereo not drawn) [Compound 312]
- Emax [1, 4]: < 25%
- M1 Activity [1]: + (activity was measured to be greater than 5.0 μM)
- Emax [2, 4]: < 25%
- M2 Activity [2]: + (activity was measured to be greater than 5.0 μM)
- Emax [3, 4]: < 25%
- M4 Activity [3]: + (activity was measured to be greater than 5.0 μM)

Structure (SMILES): Cc1ccc(Cl)cc1C1CCN(CC2C[C@H]3CC[C@H]2C3)CC1 (stereo partly drawn) [Compound 315]
- Emax [1, 4]: 25 to 100%
- M1 Activity [1]: + (activity was measured to be greater than 5.0 μM)
- Emax [2, 4]: 25 to 100%
- M2 Activity [2]: + (activity was measured to be greater than 5.0 μM)
- Emax [3, 4]: 25 to 100%
- M4 Activity [3]: +++ (activity was measured to be less than 1.0 μM)

Structure (SMILES): CCCC1CCC(N2CCC(OC)(c3cc(Cl)ccc3OC)CC2)CC1 (stereo not drawn) [Compound 316]
- Emax [1, 4]: 25 to 100%
- M1 Activity [1]: ++ (activity was measured to be from 1.0 μM to 5.0 μM)
- Emax [2, 4]: < 25%
- M2 Activity [2]: + (activity was measured to be greater than 5.0 μM)
- Emax [3, 4]: 25 to 100%
- M4 Activity [3]: ++ (activity was measured to be from 1.0 μM to 5.0 μM)

Structure (SMILES): COc1ccc(Cl)cc1C1(O)CCN(C[C@@H]2C[C@H]3C=C[C@H]2C3)CC1 [Compound 319]
- Emax [1, 4]: < 25%
- M1 Activity [1]: + (activity was measured to be greater than 5.0 μM)
- Emax [2, 4]: < 25%
- M2 Activity [2]: + (activity was measured to be greater than 5.0 μM)
- Emax [3, 4]: 25 to 100%
- M4 Activity [3]: ++ (activity was measured to be from 1.0 μM to 5.0 μM)

Structure (SMILES): CCCC1CCC(N2CCC(C#N)(c3ccccc3OC)CC2)CC1 (stereo not drawn) [Compound 335]
- Emax [1, 4]: 25 to 100%
- M1 Activity [1]: ++ (activity was measured to be from 1.0 μM to 5.0 μM)
- Emax [2, 4]: < 25%
- M2 Activity [2]: + (activity was measured to be greater than 5.0 μM)
- Emax [3, 4]: 25 to 100%
- M4 Activity [3]: ++ (activity was measured to be from 1.0 μM to 5.0 μM)

Structure (SMILES): CCOC(=O)N1[C@@H]2CC[C@@H]1CC(N1CCC(c3cc(NC(C)=O)ccc3OC)CC1)C2 (stereo partly drawn) [Compound 338]
- Emax [1, 4]: 25 to 100%
- Emax [2, 4]: < 25%
- Emax [3, 4]: 25 to 100%

Structure (SMILES): COc1ccc(OC)c(C2CCN(CC3C[C@H]4CC[C@H]3C4)CC2)c1 (stereo partly drawn) [Compound 344]
- Emax [1, 4]: < 25%
- M1 Activity [1]: + (activity was measured to be greater than 5.0 μM)
- Emax [2, 4]: < 25%
- M2 Activity [2]: + (activity was measured to be greater than 5.0 μM)
- Emax [3, 4]: 25 to 100%
- M4 Activity [3]: ++ (activity was measured to be from 1.0 μM to 5.0 μM)

Structure (SMILES): COc1ccccc1C1(C#N)CCN(C2CCCCC2)CC1 [Compound 348]
- Emax [1, 4]: 25 to 100%
- M1 Activity [1]: + (activity was measured to be greater than 5.0 μM)
- Emax [2, 4]: < 25%
- M2 Activity [2]: + (activity was measured to be greater than 5.0 μM)
- Emax [3, 4]: 25 to 100%
- M4 Activity [3]: ++ (activity was measured to be from 1.0 μM to 5.0 μM)

Structure (SMILES): COc1ccccc1C1(C#N)CCN(C[C@@H]2C[C@H]3C=C[C@H]2C3)CC1 [Compound 359]
- Emax [1, 4]: 25 to 100%
- M1 Activity [1]: ++ (activity was measured to be from 1.0 μM to 5.0 μM)
- Emax [2, 4]: 25 to 100%
- M2 Activity [2]: ++ (activity was measured to be from 1.0 μM to 5.0 μM)
- Emax [3, 4]: 25 to 100%
- M4 Activity [3]: +++ (activity was measured to be less than 1.0 μM)

Structure (SMILES): COc1ccccc1C1(C#N)CCN(C2CCOCC2)CC1 [Compound 379]
- Emax [1, 5]: < 25%
- M1 Activity [1]: + (activity was measured to be greater than 5.0 μM)
- Emax [2, 5]: < 25%
- M2 Activity [2]: + (activity was measured to be greater than 5.0 μM)
- Emax [3, 5]: < 25%
- M4 Activity [3]: + (activity was measured to be greater than 5.0 μM)

Structure (SMILES): COc1ccc(Cl)cc1C1(O)CCN(C2CCCCCC2)CC1 [Compound 380]
- Emax [1, 5]: < 25%
- M1 Activity [1]: + (activity was measured to be greater than 5.0 μM)
- Emax [2, 5]: < 25%
- M2 Activity [2]: + (activity was measured to be greater than 5.0 μM)
- Emax [3, 5]: 25 to 100%
- M4 Activity [3]: ++ (activity was measured to be from 1.0 μM to 5.0 μM)

Structure (SMILES): Cc1ccc(F)cc1C1CCN(C2C[C@H]3CC[C@H](C2)C3)CC1 (stereo partly drawn) [Compound 385]
- Emax [1, 5]: 25 to 100%
- M1 Activity [1]: ++ (activity was measured to be from 1.0 μM to 5.0 μM)
- Emax [2, 5]: < 25%
- M2 Activity [2]: + (activity was measured to be greater than 5.0 μM)
- Emax [3, 5]: 25 to 100%
- M4 Activity [3]: +++ (activity was measured to be less than 1.0 μM)

Structure (SMILES): COc1ccc(F)cc1C1CCN(C2CCC3CCC2C3)CC1 (stereo not drawn) [Compound 412]
- Emax [1, 5]: 25 to 100%
- M1 Activity [1]: +++ (activity was measured to be less than 1.0 μM)
- Emax [2, 5]: < 25%
- M2 Activity [2]: ++ (activity was measured to be from 1.0 μM to 5.0 μM)
- Emax [3, 5]: 25 to 100%
- M4 Activity [3]: +++ (activity was measured to be less than 1.0 μM)
